Data: US11572590B2, “Methods for evaluating tumor cell spheroids using 3D microfluidic cell culture device” (Dana-Farber Cancer Institute, Inc., priority 2017, dated 2023)
Read-outs that look alike come from different tables or passages of the source.

How the values were obtained:
Assay in all cases: SelectScreen Kinase Profiling, single point inhibition and IC50 for off-target kinases
Format in all cases: biochemical
off-target kinases [1] = biological target: off-target kinases (Homo sapiens, UniProt Q15349); conditions: RPS6KA2 (RSK3), ZLYTE, ATP Km app
off-target kinases (Homo sapiens, UniProt Q15349), sequence (Q15349 whole entry): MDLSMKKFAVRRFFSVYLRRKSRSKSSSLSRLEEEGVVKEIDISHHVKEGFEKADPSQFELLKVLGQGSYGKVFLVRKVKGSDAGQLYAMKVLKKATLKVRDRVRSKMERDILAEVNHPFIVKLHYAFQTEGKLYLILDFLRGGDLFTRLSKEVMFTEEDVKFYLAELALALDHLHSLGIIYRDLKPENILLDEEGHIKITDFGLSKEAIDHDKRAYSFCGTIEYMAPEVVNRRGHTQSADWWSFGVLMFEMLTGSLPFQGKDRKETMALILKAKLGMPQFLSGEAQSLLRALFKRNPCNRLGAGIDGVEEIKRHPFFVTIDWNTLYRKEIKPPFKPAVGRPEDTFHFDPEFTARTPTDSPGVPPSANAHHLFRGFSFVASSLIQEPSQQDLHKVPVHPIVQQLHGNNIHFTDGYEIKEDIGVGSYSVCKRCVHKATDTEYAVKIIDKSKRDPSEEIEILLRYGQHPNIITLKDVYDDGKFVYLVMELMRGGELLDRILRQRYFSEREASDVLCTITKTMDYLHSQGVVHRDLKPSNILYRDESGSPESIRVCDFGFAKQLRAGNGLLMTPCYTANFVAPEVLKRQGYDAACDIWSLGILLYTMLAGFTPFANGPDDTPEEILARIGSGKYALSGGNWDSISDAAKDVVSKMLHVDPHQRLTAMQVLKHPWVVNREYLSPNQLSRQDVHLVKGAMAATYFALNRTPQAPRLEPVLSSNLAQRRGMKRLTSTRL

off-target kinases [2] = biological target: off-target kinases (Homo sapiens, UniProt P10721, T670I/V559D); conditions: KIT V559D T670I, LanthaScreen Binding
off-target kinases (Homo sapiens, UniProt P10721, T670I/V559D), sequence (P10721 26-976 V559D/T670I): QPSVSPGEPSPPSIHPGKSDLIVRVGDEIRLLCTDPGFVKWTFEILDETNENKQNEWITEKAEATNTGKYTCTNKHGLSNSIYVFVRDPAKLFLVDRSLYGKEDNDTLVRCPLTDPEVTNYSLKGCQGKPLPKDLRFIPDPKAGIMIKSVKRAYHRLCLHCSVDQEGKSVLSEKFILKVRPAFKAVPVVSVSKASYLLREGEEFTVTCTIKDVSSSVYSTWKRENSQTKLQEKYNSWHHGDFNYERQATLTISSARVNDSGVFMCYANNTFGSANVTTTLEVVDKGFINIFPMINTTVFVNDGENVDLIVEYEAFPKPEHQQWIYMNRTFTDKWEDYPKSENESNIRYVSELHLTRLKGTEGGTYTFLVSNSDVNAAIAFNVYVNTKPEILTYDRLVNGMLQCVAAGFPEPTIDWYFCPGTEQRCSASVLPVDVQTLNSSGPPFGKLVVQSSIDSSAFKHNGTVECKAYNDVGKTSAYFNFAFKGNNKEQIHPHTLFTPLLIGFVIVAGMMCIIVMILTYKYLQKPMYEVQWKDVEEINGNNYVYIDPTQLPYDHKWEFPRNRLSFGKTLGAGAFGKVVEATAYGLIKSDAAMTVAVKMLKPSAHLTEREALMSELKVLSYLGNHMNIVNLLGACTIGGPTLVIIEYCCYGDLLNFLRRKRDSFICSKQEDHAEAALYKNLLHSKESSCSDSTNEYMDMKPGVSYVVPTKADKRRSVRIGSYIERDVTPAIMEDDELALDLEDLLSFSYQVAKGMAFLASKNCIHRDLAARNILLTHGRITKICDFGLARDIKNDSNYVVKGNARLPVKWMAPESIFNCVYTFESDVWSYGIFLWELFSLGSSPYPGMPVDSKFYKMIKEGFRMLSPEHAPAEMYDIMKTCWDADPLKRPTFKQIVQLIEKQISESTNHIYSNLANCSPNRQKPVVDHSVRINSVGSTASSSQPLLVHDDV

off-target kinases [3] = biological target: T1, off-target kinases (Homo sapiens, UniProt Q9NRM7); conditions: LATS2, LanthaScreen Binding
T1 sequence (Q9NRM7 1-1088): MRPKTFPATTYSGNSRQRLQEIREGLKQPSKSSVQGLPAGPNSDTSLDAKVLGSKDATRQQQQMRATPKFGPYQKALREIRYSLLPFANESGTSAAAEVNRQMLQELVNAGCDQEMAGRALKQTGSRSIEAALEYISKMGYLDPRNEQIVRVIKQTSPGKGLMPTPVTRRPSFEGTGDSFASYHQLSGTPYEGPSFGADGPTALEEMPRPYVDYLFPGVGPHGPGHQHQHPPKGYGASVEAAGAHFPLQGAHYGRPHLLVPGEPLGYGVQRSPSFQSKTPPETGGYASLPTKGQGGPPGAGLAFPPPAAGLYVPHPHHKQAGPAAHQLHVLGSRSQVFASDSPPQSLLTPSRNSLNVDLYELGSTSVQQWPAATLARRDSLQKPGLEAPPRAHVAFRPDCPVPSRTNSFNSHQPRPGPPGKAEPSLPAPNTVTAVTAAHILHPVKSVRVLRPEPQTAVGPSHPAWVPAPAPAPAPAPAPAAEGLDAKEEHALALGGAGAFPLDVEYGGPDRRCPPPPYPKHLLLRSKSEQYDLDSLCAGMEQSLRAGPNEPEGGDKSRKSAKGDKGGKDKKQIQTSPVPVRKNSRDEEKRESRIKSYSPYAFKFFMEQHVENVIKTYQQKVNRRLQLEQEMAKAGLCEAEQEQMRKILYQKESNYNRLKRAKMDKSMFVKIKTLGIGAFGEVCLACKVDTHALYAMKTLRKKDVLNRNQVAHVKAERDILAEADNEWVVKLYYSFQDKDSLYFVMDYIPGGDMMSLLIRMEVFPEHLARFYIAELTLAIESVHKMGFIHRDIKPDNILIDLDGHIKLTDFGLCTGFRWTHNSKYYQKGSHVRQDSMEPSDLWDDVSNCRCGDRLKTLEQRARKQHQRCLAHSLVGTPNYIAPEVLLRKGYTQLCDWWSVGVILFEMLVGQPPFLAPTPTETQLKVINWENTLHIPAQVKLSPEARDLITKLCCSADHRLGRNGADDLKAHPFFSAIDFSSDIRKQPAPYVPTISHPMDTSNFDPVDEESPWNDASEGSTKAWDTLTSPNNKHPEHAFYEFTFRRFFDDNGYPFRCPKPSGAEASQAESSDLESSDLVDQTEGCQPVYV

off-target kinases [4] = biological target: off-target kinases (Homo sapiens, UniProt P51957); conditions: NEK4, ZLYTE, ATP Km app
off-target kinases (Homo sapiens, UniProt P51957), sequence (P51957 whole entry): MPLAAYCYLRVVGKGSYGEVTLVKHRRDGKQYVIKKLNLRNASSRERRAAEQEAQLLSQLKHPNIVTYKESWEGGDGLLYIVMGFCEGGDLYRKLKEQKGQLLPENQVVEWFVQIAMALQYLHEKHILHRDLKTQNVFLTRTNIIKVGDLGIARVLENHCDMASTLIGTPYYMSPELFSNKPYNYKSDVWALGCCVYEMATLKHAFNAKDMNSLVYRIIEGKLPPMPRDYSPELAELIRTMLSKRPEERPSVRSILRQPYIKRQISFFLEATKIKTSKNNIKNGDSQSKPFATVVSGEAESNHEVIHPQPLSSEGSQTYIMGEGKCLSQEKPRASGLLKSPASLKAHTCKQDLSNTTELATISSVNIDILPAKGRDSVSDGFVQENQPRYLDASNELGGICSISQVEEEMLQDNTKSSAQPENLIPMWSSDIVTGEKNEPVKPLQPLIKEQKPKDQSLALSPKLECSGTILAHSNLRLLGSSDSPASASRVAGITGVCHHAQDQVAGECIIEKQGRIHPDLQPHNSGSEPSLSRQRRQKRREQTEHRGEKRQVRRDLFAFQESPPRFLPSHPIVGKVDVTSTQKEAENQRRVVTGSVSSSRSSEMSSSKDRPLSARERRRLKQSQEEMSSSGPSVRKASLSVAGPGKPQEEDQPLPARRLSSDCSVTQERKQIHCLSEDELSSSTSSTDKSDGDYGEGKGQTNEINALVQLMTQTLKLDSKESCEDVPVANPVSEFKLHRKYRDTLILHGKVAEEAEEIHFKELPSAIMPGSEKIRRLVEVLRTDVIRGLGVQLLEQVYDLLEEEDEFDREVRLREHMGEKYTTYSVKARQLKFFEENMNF

off-target kinases [5] = biological target: off-target kinases (Homo sapiens, UniProt O75914); conditions: PAK3, ZLYTE, ATP Km app
off-target kinases (Homo sapiens, UniProt O75914), sequence (O75914 whole entry): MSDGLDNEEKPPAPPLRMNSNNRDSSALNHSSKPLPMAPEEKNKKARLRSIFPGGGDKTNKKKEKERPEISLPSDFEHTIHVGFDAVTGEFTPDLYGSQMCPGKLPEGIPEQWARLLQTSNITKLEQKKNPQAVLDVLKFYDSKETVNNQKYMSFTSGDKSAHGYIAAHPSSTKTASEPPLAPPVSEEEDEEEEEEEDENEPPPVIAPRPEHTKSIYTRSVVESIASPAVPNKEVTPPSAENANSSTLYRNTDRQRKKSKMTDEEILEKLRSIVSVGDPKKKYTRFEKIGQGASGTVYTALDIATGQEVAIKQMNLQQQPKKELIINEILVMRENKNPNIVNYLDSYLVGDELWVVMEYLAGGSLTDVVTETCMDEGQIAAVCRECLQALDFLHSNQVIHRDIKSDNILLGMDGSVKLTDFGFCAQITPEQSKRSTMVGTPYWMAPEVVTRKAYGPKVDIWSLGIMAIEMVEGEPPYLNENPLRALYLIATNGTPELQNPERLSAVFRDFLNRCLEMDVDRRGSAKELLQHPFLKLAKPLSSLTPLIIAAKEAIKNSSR

off-target kinases [6] = biological target: off-target kinases (Homo sapiens, UniProt Q16512); conditions: PKN1 (PRK1); Cmpd1 1000 μM; ATP Km app; ZLYTE
off-target kinases (Homo sapiens, UniProt Q16512), sequence (Q16512 whole entry): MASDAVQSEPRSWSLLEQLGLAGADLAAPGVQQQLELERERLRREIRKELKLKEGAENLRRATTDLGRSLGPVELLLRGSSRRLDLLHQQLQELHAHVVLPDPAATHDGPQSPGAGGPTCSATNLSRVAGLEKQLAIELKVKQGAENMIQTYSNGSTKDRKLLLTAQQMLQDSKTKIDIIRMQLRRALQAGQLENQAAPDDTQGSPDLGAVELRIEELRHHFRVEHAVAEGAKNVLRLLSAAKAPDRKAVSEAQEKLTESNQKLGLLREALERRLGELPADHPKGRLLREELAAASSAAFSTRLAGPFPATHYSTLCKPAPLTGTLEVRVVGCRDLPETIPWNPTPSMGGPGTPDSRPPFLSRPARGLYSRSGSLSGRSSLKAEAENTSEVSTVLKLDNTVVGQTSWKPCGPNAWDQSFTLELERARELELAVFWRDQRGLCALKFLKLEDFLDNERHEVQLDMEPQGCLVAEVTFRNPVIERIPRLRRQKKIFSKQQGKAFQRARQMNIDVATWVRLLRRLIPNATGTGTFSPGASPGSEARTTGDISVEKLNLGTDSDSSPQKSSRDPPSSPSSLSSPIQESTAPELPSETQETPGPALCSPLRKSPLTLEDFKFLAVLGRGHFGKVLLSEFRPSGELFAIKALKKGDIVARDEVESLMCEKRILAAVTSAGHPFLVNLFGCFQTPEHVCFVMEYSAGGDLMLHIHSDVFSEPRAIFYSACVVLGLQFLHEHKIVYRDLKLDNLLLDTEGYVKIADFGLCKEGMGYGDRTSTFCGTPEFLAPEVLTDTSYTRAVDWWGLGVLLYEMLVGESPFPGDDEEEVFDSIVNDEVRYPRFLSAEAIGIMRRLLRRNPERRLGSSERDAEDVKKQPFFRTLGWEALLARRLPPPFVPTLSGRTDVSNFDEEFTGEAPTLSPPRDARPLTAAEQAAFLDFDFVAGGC

## N#Cc1cc(-c2ncnc(Nc3ccc(N4CCN(C5COC5)CC4)cc3)n2)ccc1OC1CCOCC1 [Compound 1, 5-(4-((4-(4-(oxetan-3-yl)piperazin-1-yl)phenyl)amino)-1,3,5-triazin-2-yl)-2-((tetrahydro-2H-pyran-4-yl)oxy)benzonitrile]
off-target kinases [1]; read-out: % Inhibition 1
  inhibition: 17%
off-target kinases [1]; read-out: % Inhibition 2
  inhibition: 13%
off-target kinases [1]; read-out: % Inhibition Avg
  inhibition: 15%
off-target kinases [2]; read-out: % Inhibition 1
  inhibition: 46%
off-target kinases [2]; read-out: % Inhibition 2
  inhibition: 49%
off-target kinases [2]; read-out: % Inhibition Avg
  inhibition: 47%
off-target kinases [3]; read-out: % Inhibition 1
  inhibition: 23%
off-target kinases [3]; read-out: % Inhibition 2
  inhibition: 25%
off-target kinases [3]; read-out: % Inhibition Avg
  inhibition: 24%
off-target kinases [4]; read-out: % Inhibition 1
  inhibition: 23%
off-target kinases [4]; read-out: % Inhibition 2
  inhibition: 23%
off-target kinases [4]; read-out: % Inhibition Avg
  inhibition: 23%
off-target kinases [5]; read-out: % Inhibition 1
  inhibition: 7%
off-target kinases [5]; read-out: % Inhibition 2
  inhibition: 2%
off-target kinases [5]; read-out: % Inhibition Avg
  inhibition: 5%
off-target kinases [6]
  % Inhibition 1: −6%
  % Inhibition 2: −4%
  % Inhibition Avg: −5%
